Source: a melting point compilation (Tetko et al.)

Row | melting point [°C] | Compound
1 | 134 | CCOC(=O)c1cc(C(=O)OCC)cc(C(=O)OCC)c1
2 | 221 | CC1(C)OC(=O)C(=Cc2ccc(-c3ccc([N+](=O)[O-])cc3)o2)C(=O)O1
3 | 46 | N#Cc1ccc(F)cc1F
4 | 170 to 174 | COC(=O)c1ccc(C(=O)CC#N)cc1
5 | 29.8 | CCCCCCCCCCCC=CCCCCC(=O)O
6 | 71.5 | CCCCC=CC=CC=CCCCCCCCC(=O)O
7 | 7 | CCOC(=O)C=Cc1ccccc1
8 | 78 to 88 | N#CCc1ccc2ccccc2c1
9 | 225 | CC1=C(C(=O)OC(C)C)C(c2cccc([N+](=O)[O-])c2)NC(=S)N1 (configuration not stated)
10 | 153 to 157 | CC(C)C[C@H](NC(=O)OCC1c2ccccc2-c2ccccc21)C(=O)O
11 | 268 | N#Cc1ccc(C(Cl)=Cc2cccc(C=C(Cl)c3ccc(C#N)cc3[N+](=O)[O-])c2)c([N+](=O)[O-])c1
12 | 35 to 36 | OCc1ccc2occc2c1
13 | 110 | Cc1c(N/N=C(/C(=O)c2cccc3ccccc23)S(=O)(=O)c2ccccc2)c(=O)n(-c2ccccc2)n1C
14 | 100 to 101 | CC1CC(=Cc2ccccc2)C(=O)C(=Cc2ccccc2)C1 (configuration not stated)
15 | 38 | N#Cc1ccc(C(F)(F)F)cc1
16 | 107 to 110 | OC1(c2ccccc2)c2ccccc2-c2ccccc21
17 | 106 | O=[N+]([O-])c1ccc(Oc2c(Cl)cc(Cl)cc2Cl)cc1
18 | 90 to 92 | CC1=NN(c2ccccc2)C(=O)C1C(=O)c1ccccc1 (configuration not stated)
19 | 159 to 161 | O=C(NC(=S)Nc1ccccc1)c1ccccc1
20 | 43 to 46 | CCCCCCCc1ccc(C(=O)Oc2ccc(C#N)cc2)cc1
21 | -32 | COc1ccc(C)cc1
22 | 99 to 101 | CC(C)(C)OC(=O)N1CCC(Oc2ccc([N+](=O)[O-])cc2)CC1
23 | 52 to 56 | CCCCC[C@H]1CC[C@H](C(=O)O)CC1
24 | 35 | CCCCCCCCC=CCCCCCCCC(=O)OCC(O)CO (configuration not stated)
25 | 212 to 216 | O=C(O)c1sc(-c2ccccc2)nc1-c1ccccc1
26 | 146 | O=C(CCCN1CC=C(n2c(=O)[nH]c3ccccc32)CC1)c1ccc(F)cc1

Row | melting point [°C] | Compound
27 | 123 to 124 | O=C(O)Cc1ccc(OCc2ccccc2)cc1
28 | 223 | O=C1C(c2cccc3ccccc23)=[N+]([O-])c2cc([N+](=O)[O-])ccc21
29 | 128 to 130 | CCOC(=O)c1sc(-c2ccc(C)cc2)nc1O
30 | 322 | O=S(=O)(O)c1ccc(O)c2ncccc12
31 | 127 to 128 | O=C(Cl)c1ccc(-n2cccn2)cc1
32 | 145 to 147 | CCn1c2c(c3cc(OC)ccc31)CCc1cc(OC)ccc1-2
33 | 104 | CC(C)(C)OC(=O)N[C@H](CC(=O)O)Cc1ccccc1
34 | 130 | COC(=O)COC(=O)c1ccc2c(O)c(C(=O)OC)oc2c1
35 | 166 | O=c1c2ccccc2cc2ccccn12
36 | 96.5 | CCOc1ccc([N+](=O)[O-])cc1N
37 | 148 | CCC1c2ccccc2N(C)C12C=Cc1cccc([N+](=O)[O-])c1O2 (configuration not stated)
38 | 222 | O=C(c1ccc(O)c(O)c1)c1c(O)cc(O)cc1O
39 | 115 | CC(=O)CCc1cc2c(c([N+](=O)[O-])c1)CCC(C)N2C(=O)c1ccc([N+](=O)[O-])cc1 (configuration not stated)
40 | 195 | NC(=O)c1ccc2ccccc2c1
41 | 255 to 258 | Nc1ccc(CC(N)C(=O)O)cc1 (racemic)
42 | 300 | O=C(O)c1ccc2cc(C(=O)O)ccc2c1
43 | 208 | O=C(NC1CCN(CCc2c[nH]c3ccccc23)CC1)c1ccccc1
44 | 136 | CCC1(c2ccccc2)NC(=O)N(C)C1=O (configuration not stated)
45 | 97 | c1ccc(COc2ccc3ccccc3c2)cc1
46 | 176 to 178 | O=C(O)c1ccc(CSc2ccc(C(F)(F)F)cn2)o1
47 | 300 | O=C(O)c1ccc2[nH]cnc2c1
48 | 86 | c1ccc(OCc2ccc(CCN3CCOCC3)cc2)cc1
49 | 166 to 168 | O=[N+]([O-])c1ccc(N=C=Nc2ccc([N+](=O)[O-])cc2)cc1
50 | 125 to 132 | Cn1ccc(-c2ccc(N)cc2)n1
51 | 194 | CCCCNC(=O)c1ccc2cc(O)c(O)cc2c1
52 | 235 | Cc1c(-c2ccccc2)oc2c(C(=O)O)cccc2c1=O

The remaining lines, values behind:

Row | Compound | melting point [°C]
53 | O=C1OC(c2ccccc2)=N/C1=C/c1cc(/C=C2/N=C(c3ccccc3)OC2=O)c([N+](=O)[O-])cc1[N+](=O)[O-] | 266
54 | CC(C)C(C)C(O)C(O)C(C)C1CCC2C3COC(=O)C4CC(O)C(O)CC4(C)C3CCC12C (configuration not stated) | 255
55 | O=C(O)CC1(CC(=O)O)CCCCC1 | 181 to 185
56 | CNC(=O)Oc1cc(C)c(SC)c(C)c1 | 120
57 | CC(NC(=O)C(C)NC(=O)C(N)CCP(C)(=O)O)C(=O)O (configuration not stated) | 160
58 | NN=C(N)C(S)=NN | 150
59 | CC(C)N1CSc2nnc(-c3ccccc3)n2C1 | 225 to 226
60 | CC(=O)CCCCC(=O)O | 35
61 | Cc1nn(C)c(Cl)c1I | 64 to 65
62 | CN(C)C1=NC(=O)C(c2ccccc2)O1 (configuration not stated) | 133
63 | N#CCC(N)=C(C#N)C#N | 172
64 | CC1(C)C=[N+]([O-])C(C)(C)C=[N+]1[O-] | 298 to 300
65 | CN(C(=S)Cl)c1ccc(Br)cc1 | 101 to 104
66 | CCCN(CCC)c1c([N+](=O)[O-])cc(S(N)(=O)=O)cc1[N+](=O)[O-] | 141
67 | O=C1CCCN1c1ccc(F)cc1 | 55 to 58
68 | CSc1nc(N)nc(-c2cnccn2)n1 | 215
69 | COC(=O)c1cc(OC)c(OC)cc1N | 129
70 | NC(=O)CS(=O)(=O)c1ccccc1 | 156
71 | NCCCCCCCCCCCCN | 70
72 | COc1cc2c(c3oc(=O)c4c(c13)CCC4=O)C1C=COC1O2 (configuration not stated) | 268 to 269
73 | Nc1cccc(S(=O)(=O)N2CCCCC2)c1 | 117 to 118
74 | CC12CCC(=O)CC1(O)CCC2=O (single isomer, unassigned; (+)) | 110 to 118
75 | Cc1cc(CCl)nn1C | 63 to 66
76 | CC(C)(C)C(O)(CCc1ccc(Cl)cc1)Cn1cncn1 (configuration not stated) | 105
77 | O=[N+]([O-])c1ccc2ccccc2c1 | 79

Row | Compound | melting point [°C]
78 | CC12CCC(C(=O)OC1=O)C2(C)C (configuration not stated) | 221
79 | Clc1nsc2ccccc12 | 39
80 | CC(C)COC(N)=O | 67
81 | O=C(O)c1cc(F)c(F)cc1Cl | 106
82 | C[C@]1(O)C#CCCCCC#C[C@](C)(O)CC1 | 144
83 | NC(=S)Nc1cccc(Cl)c1Cl | 160 to 162
84 | Fc1c(F)c(F)c(I)c(I)c1F | 49 to 50
85 | O=C(O)C(=S)Cc1cccc(CC(=S)C(=O)O)c1 | 85
86 | O=C1CCCCC1C1=CCCCC1 (configuration not stated) | -78
87 | N#Cc1ccc([N+](=O)[O-])cc1C(F)(F)F | 52 to 54
88 | Cn1c(=O)c2c(ncn2CCCl)n(C)c1=O | 122 to 127
89 | O=c1cc(C(F)(F)F)c2cc(Cl)c(O)cc2o1 | 178 to 182
90 | Cc1cnc(C(=O)O)cn1 | 166
91 | CC(C)(C)c1ccc(S)cc1 | -11
92 | O=C(ON1C(=O)CCC1=O)ON1C(=O)CCC1=O | 190
93 | CC1(C(=O)O)CCC(O)(CC(O)c2ccccc2)C1(C)C (configuration not stated) | 188
94 | O=Nc1c(-c2cccs2)nc2ncccn12 | 239
95 | FC(F)C(F)(F)OCC(Cn1cncn1)c1ccc(Cl)cc1Cl (configuration not stated) | 6
96 | NC(=O)[C@@H]1CC=CC[C@H]1N (relative stereo) | 163 to 167
97 | COCC(C)c1c(O)c2c(c(OC)c1OC)C1(C)CCCC(C)(C)C1C(=O)C2=O (configuration not stated) | 90 to 92
98 | O=C(C(F)(F)F)C(F)(F)Cl | -133
99 | FC1(F)C(F)(F)C(F)(F)C1(F)F | -40.1
100 | CCCOCCO | -70
101 | O=C(O)c1ccc(Br)o1 | 190
102 | O=C1C=C(O)C(=O)C=C1O | 220

Row | Compound | melting point [°C]
103 | Cc1cncc(C)n1 | 47.5
104 | O=C1NC(=O)C(=NNc2ccc(Br)cc2)C(=O)N1 | 295
105 | O=Cc1cc(I)cc(I)c1O | 108
106 | CC(=O)Nc1cc(C(F)(F)F)cc(C(F)(F)F)c1 | 161
107 | Fc1cc(F)c(Br)c(Br)c1 | 37
108 | NC(=O)C(F)(F)C(F)(F)C(F)(F)C(F)(F)C(F)(F)C(F)(F)F | 136
109 | C=Cc1ccc2c(c1)OCCOCCOCCOCCOCCO2 | 57 to 60
110 | O=C(O)c1cccc(N2CCCC2)c1 | 215 to 217
111 | NNC(=S)NCc1ccc2c(c1)OCO2 | 158 to 160
112 | O=S(=O)(Cl)c1ccc2nsnc2c1 | 69 to 74
113 | Clc1cc2c(Cl)cccc2c(Cl)c1Cl | 141
114 | COC(=O)c1sccc1NN | 69 to 71
115 | COC(=O)[C@@H]1C[C@@H]2CSCN2[C@@]12C(=O)c1cccc3cccc2c13 | 172
116 | OCc1cn2ccccc2n1 | 102 to 103
117 | C=Cc1ccc2c(c1)OCCOCCOCCOCCO2 | 35 to 43
118 | Cc1nc(C(=O)O)cs1 | 148 to 149
119 | Fc1c(CBr)cccc1C(F)(F)F | 48
120 | CS(=O)(=O)Cc1ccccc1 | 126
121 | C=C(C)CC1(CC)C(=O)NC(=S)NC1=O | 160
122 | N[C@@H](CCCCNC(=O)OCc1ccccc1)C(=O)O | 259
123 | CC(=O)c1ccccc1[N+](=O)[O-] | 28.5
124 | C=CCNC(N)=O | 85
125 | O=C(Oc1c(F)c(F)c(F)c(F)c1F)c1ccnc(N2CCSCC2)c1 | 99 to 100
126 | N#CC(CCN1CCC(C(N)=O)(N2CCCCC2)CC1)(c1ccccc1)c1ccccc1 | 150
127 | CC(C)CNC(=O)C(C(F)(F)F)C(F)(F)F | 111
